Measurements: US8889704B2 (Array BioPharma Inc., priority 2011, dated 2014)
pIC50: −log10 of the molar value. Structures can show the parent of a compound that is named as a salt.

Key:
Format in all cases: biochemical
[1] = target: T1, GST-tagged recombinant full-length human Pim-2 (Homo sapiens, UniProt Q9P1W9); assay: PIM-2 Assay (as Example A); settings: averaged IC50; 4 μM ATP, 1.0 μM PIM2tide, 1.5 nM Pim-2
T1 construct: GST-tagged recombinant full-length human Pim-2; GST
In short: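 IC50 was derived by 4-parameter logistic fitting of percent-of-control data over a 10-point, 3-fold series (highest 10 μM, 2% DMSO). Reactions held 1.5 nM GST-Pim-2 (full-length, human), 4 μM [γ-33P]ATP and 1.0 μM PIM2tide for 60 min at 22 °C, pH 7.4; 33P-peptide captured on P81 filters.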

recombinant rat PIM-3 = recombinant rat PIM-3 (Rattus norvegicus, UniProt O70444); assay: PIM-3 Assay (as Example A); settings: averaged IC50; 30 μM ATP, 3.75 μM PIM2tide, 0.5 nM PIM-3
In short: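 33P incorporation from 30 μM [γ-33P]ATP into 3.75 μM PIM2tide by 0.5 nM rat PIM-3, 60 min at 22 °C in pH 7.4 MOPS buffer, read by P81 filter capture and scintillation counting. Compounds tested in 3-fold dilutions up to 10 μM final, 2% DMSO; percent-of-control data fitted by 4-parameter logistic for IC50.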

PIM-1 = PIM-1 (Homo sapiens, UniProt P11309); assay: Enzyme PIM-1 Assay ([33P]ATP incorporation into PIM2tide, filter plate); settings: averaged IC50; 35 μM ATP, 7.5 μM PIM2tide, 0.25 nM PIM-1, 60 min at 22° C.
In short: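 Ten-point, 3-fold dilution series (10 μM top, 2% DMSO final) tested for inhibition of 33P transfer from 35 μM ATP to 7.5 μM PIM2tide by 0.25 nM PIM-1. Reaction 60 min, 22 °C, pH 7.4 MOPS/MgCl2 buffer; phosphocellulose capture, scintillation counting, IC50 where fitted POC equals 50.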

T1 sequence (Q9P1W9 whole entry): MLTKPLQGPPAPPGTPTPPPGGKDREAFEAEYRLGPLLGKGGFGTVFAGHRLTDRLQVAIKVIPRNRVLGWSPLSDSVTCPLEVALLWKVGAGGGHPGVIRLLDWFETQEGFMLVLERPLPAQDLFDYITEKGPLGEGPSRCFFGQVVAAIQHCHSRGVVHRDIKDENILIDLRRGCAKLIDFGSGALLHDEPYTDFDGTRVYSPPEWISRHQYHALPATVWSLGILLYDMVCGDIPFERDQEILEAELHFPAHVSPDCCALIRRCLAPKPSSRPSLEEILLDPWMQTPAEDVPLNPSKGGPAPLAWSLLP
Chain of PIM-1 (P11309 whole entry, species assumed): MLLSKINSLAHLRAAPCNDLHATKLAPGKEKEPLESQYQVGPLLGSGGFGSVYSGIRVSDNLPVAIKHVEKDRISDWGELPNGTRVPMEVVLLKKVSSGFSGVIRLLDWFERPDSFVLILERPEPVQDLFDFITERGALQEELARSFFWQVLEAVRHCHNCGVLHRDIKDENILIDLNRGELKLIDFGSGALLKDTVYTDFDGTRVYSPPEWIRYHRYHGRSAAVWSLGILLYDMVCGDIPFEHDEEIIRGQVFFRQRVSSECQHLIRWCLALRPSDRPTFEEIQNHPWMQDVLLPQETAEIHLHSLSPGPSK

Row | SMILES | pIC50 [1] | pIC50 (recombinant rat PIM-3) | pIC50 (PIM-1)
1 | CNC(=O)c1ccc2ccc(-c3nnc4ccc([C@@H](N5CC[C@H](N)C5)C(F)(F)F)cn34)nc2c1 [Example 42, 2-(6-((R)-1-((S)-3-aminopyrrolidin-1-yl)-2,2,2-trifluoroethyl)-[1,2,4]triazolo[4,3-a]pyridin-3-yl)-N-methylquinoline-7-carboxamide dihydrochloride] | 7.31 | 9.30 | 9.59
2 | CC(C)C(=O)Nc1ccc2ccc(-c3nnc4ccc(C(N5CC[C@H](N)C5)C(F)(F)F)cn34)nc2c1 (stereo partly drawn) [Example 44, N-(2-(6-(1-((S)-3-aminopyrrolidin-1-yl)-2,2,2-trifluoroethyl)-[1,2,4]triazolo[4,3-a]pyridin-3-yl)quinolin-7-yl)isobutyramide] | 7.54 | 9.70 | 9.89
3 | CC(C)(C)NC(=O)c1ccc2ccc(-c3nnc4ccc([C@@H](N5CC[C@H](N)C5)C(F)(F)F)cn34)nc2c1 [Example 46, 2-(6-((R)-1-((S)-3-aminopyrrolidin-1-yl)-2,2,2-trifluoroethyl)-[1,2,4]triazolo[4,3-a]pyridin-3-yl)-N-tert-butylquinoline-7-carboxamide dihydrochloride] | 7.48 | 9.52 | 10.15
4 | CC(C)NC(=O)c1ccc2ccc(-c3nnc4ccc([C@H](N5CC[C@H](N)C5)C(F)(F)F)cn34)nc2c1 [Example 48, 2-(6-((S)-1-((S)-3-aminopyrrolidin-1-yl)-2,2,2-trifluoroethyl)-[1,2,4]triazolo[4,3-a]pyridin-3-yl)-N-isopropylquinoline-7-carboxamide dihydrochloride] | < 7.00 | 8.72 | 8.85
5 | CC(C)NC(=O)c1ccc2ccc(-c3nnc4ccc([C@@H](N5CC[C@@H](N)C5)C(F)(F)F)cn34)nc2c1 [Example 49, 2-(6-((R)-1-((R)-3-aminopyrrolidin-1-yl)-2,2,2-trifluoroethyl)-[1,2,4]triazolo[4,3-a]pyridin-3-yl)-N-isopropylquinoline-7-carboxamide dihydrochloride] | 7.17 | 9.40 | 9.66
6 | CC(C)NC(=O)c1ccc2ccc(-c3nnc4ccc([C@H](N5CC[C@@H](N)C5)C(F)(F)F)cn34)nc2c1 [Example 52, 2-(6-((S)-1-((R)-3-aminopyrrolidin-1-yl)-2,2,2-trifluoroethyl)-[1,2,4]triazolo[4,3-a]pyridin-3-yl)-N-isopropylquinoline-7-carboxamide] | < 7.00 | 8.70 | 8.86
7 | CC1(NC(=O)c2ccc3ccc(-c4nnc5ccc([C@@H](N6CC[C@H](N)C6)C(F)(F)F)cn45)nc3c2)CC1 [Example 53, 2-(6-((R)-1-((S)-3-aminopyrrolidin-1-yl)-2,2,2-trifluoroethyl)-[1,2,4]triazolo[4,3-a]pyridin-3-yl)-N-(1-methylcyclopropyl)quinoline-7-carboxamide dihydrochloride] | 7.57 | 9.52 | 9.62
8 | CC(C)(C)NC(=O)c1ccc2ccc(-c3nnc4ccc([C@@H](N5CC[C@@H](N)C5)C(F)(F)F)cn34)nc2c1 [Example 54, 2-(6-((R)-1-((R)-3-aminopyrrolidin-1-yl)-2,2,2-trifluoroethyl)-[1,2,4]triazolo[4,3-a]pyridin-3-yl)-N-tert-butylquinoline-7-carboxamide dihydrochloride] | 7.17 | 9.22 | 9.39
9 | CC1(NC(=O)c2ccc3ccc(-c4nnc5ccc([C@@H](N6CC[C@@H](N)C6)C(F)(F)F)cn45)nc3c2)CC1 [Example 55, 2-(6-((R)-1-((R)-3-aminopyrrolidin-1-yl)-2,2,2-trifluoroethyl)-[1,2,4]triazolo[4,3-a]pyridin-3-yl)-N-(1-methylcyclopropyl)quinoline-7-carboxamide dihydrochloride] | 7.46 | 9.52 | 9.60

Next, values leading:

Row | pIC50 [1] | pIC50 (recombinant rat PIM-3) | pIC50 (PIM-1) | SMILES
10 | 7.74 | 9.00 | 10.10 | N[C@H]1CCN([C@H](c2ccc3nnc(-c4ccc5cccc(C6CC6)c5n4)n3c2)C(F)(F)F)C1 [Example 39, (S)-1-((R)-1-(3-(8-cyclopropylquinolin-2-yl)-[1,2,4]triazolo[4,3-a]pyridin-6-yl)-2,2,2-trifluoroethyl)pyrrolidin-3-amine dihydrochloride]
11 | 7.11 | 8.33 | 9.68 | N[C@H]1CCN([C@H](c2ccc3nnc(-c4ccc5cccc(OC(F)(F)F)c5n4)n3c2)C(F)(F)F)C1 [Example 40, (S)-1-((R)-2,2,2-trifluoro-1-(3-(8-(trifluoromethoxy)quinolin-2-yl)-[1,2,4]triazolo[4,3-a]pyridin-6-yl)ethyl)pyrrolidin-3-amine dihydrochloride]
12 | 7.80 | 8.70 | 9.96 | CC(C)c1cccc2ccc(-c3nnc4ccc([C@@H](N5CC[C@H](N)C5)C(F)(F)F)cn34)nc12 [Example 41, (S)-1-((R)-2,2,2-trifluoro-1-(3-(8-isopropylquinolin-2-yl)-[1,2,4]triazolo[4,3-a]pyridin-6-yl)ethyl)pyrrolidin-3-amine dihydrochloride]
13 | 7.19 | 8.82 | 9.89 | CN[C@H]1CCN([C@H](c2ccc3nnc(-c4ccc5cccc(OCC6CC6)c5n4)n3c2)C(F)(F)F)C1 [Example 43, (S)-1-((R)-1-(3-(8-(cyclopropylmethoxy)quinolin-2-yl)-[1,2,4]triazolo[4,3-a]pyridin-6-yl)-2,2,2-trifluoroethyl)-N-methylpyrrolidin-3-amine dihydrochloride]
14 | 7.54 | 9.30 | 9.68 | CC(C)(C)c1cccc2ccc(-c3nnc4ccc([C@@H](N5CC[C@H](N)C5)C(F)(F)F)cn34)nc12 [Example 45, (S)-1-((R)-1-(3-(8-tert-butylquinolin-2-yl)-[1,2,4]triazolo[4,3-a]pyridin-6-yl)-2,2,2-trifluoroethyl)pyrrolidin-3-amine dihydrochloride]
15 | 7.29 | 8.42 | 10.05 | N[C@@H]1CCN([C@H](c2ccc3nnc(-c4ccc5cccc(C6CC6)c5n4)n3c2)C(F)(F)F)C1 [Example 47, (R)-1-((R)-1-(3-(8-cyclopropylquinolin-2-yl)-[1,2,4]triazolo[4,3-a]pyridin-6-yl)-2,2,2-trifluoroethyl)pyrrolidin-3-amine dihydrochloride]
16 | < 7.00 | 7.39 | 8.31 | CC(=O)N[C@H]1CCN(C(c2ccc3nnc(-c4ccc5cccc(OCC6CC6)c5n4)n3c2)C(F)(F)F)C1 (stereo partly drawn) [Example 50, N-((3S)-1-(1-(3-(8-(cyclopropylmethoxy)quinolin-2-yl)-[1,2,4]triazolo[4,3-a]pyridin-6-yl)-2,2,2-trifluoroethyl)pyrrolidin-3-yl)acetamide]
17 | 7.96 | 8.96 | 10.00 | N[C@H]1CCN([C@@H](c2ccc3nnc(-c4ccc5cccc(C6CC6)c5n4)n3c2)C(F)(F)F)C1 [Example 51, (S)-1-((S)-1-(3-(8-cyclopropylquinolin-2-yl)-[1,2,4]triazolo[4,3-a]pyridin-6-yl)-2,2,2-trifluoroethyl)pyrrolidin-3-amine dihydrochloride]
